Experimental data taken from US9487508B2, “SGC stimulators” (IRONWOOD PHARMACEUTICALS, INC., priority 2012, dated 2016).

Legend:
[1] = target: T1, soluble guanylate cyclase (sGC) (Homo sapiens, UniProt Q02108+Q02153); test: HEK whole cell assay using HTRF procedure (with SNP incubation); format: cell-based; details: HTRF cGMP read-out, 10 μM SNP; for Emax: relative to BAY 41-2272 at 10 μM with 100 μM SNP, read-out: HEK assay Emax-unconstrained (Percent); for EC50: top of curve not fitted to 100%, read-out: HEK assay EC50-unconstrained
T1 construct: endogenously expressing soluble guanylate cyclase (sGC); endogenous in cells; host or cells: HEK293
T1 sequence (Q02153 1-619): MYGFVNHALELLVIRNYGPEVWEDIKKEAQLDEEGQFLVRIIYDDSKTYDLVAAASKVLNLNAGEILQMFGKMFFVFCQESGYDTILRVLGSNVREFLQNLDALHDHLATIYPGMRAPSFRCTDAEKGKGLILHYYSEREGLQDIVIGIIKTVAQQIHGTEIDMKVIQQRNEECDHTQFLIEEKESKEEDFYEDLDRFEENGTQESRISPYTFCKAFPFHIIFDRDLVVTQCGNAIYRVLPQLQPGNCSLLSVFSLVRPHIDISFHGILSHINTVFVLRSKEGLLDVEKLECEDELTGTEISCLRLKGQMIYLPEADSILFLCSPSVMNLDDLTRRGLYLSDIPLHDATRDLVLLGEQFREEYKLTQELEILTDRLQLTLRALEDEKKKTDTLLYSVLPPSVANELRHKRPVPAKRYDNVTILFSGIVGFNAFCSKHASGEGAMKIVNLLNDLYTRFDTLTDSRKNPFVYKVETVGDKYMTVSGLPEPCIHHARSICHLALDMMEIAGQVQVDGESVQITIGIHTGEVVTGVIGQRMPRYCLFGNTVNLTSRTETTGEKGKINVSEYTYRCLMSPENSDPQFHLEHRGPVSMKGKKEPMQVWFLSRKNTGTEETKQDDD
T1 sequence (Q02108 1-690): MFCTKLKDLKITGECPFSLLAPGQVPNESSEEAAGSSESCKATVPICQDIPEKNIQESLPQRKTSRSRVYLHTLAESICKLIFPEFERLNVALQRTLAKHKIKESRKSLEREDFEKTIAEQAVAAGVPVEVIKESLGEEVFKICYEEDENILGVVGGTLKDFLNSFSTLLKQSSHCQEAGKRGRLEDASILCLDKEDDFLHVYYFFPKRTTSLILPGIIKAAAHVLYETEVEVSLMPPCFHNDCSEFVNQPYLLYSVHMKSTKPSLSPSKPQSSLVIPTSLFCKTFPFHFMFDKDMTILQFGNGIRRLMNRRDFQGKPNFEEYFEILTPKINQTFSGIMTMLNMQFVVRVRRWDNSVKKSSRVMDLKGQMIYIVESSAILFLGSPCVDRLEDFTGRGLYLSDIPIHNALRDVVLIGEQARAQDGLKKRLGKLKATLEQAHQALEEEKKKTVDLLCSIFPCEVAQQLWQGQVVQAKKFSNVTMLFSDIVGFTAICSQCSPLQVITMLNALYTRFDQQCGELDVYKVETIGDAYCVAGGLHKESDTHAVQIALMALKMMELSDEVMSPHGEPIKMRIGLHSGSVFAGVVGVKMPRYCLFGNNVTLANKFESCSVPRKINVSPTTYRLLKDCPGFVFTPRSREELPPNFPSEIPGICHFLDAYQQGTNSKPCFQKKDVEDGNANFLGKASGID
Procedure: Example 2B, HEK whole cell assay using HTRF procedure (Assay Run with SNP Incubation)
(§1) Human embryonic kidney cells (HEK293), endogenously expressing soluble guanylate cyclase (sGC), were used to evaluate the activity of test compounds. Compounds stimulating the sGC enzyme should cause an increase in the intracellular concentration of cGMP. HEK 293 cells were seeded in Dulbecco's Modification of Eagle's Medium supplemented with fetal bovine serum (10% final) and L-glutamine (2 mM final) in a 200 μL volume at a density of 1×10^5 cells/well in a poly-D-lysine coated 96 well flat bottom plate and grown overnight at 37° C. Medium was aspirated and cells were washed with 1× Hank's Buffered Saline Salt Solution (200 μL). Cells were then incubated for 15 minutes at 37° C. with 200 μL of a 0.5 mM 3-isobutyl-1-methylxanthine (IBMX) solution. Test article and sodium nitroprusside solutions (x μM concentration for test article solution and 10 μM concentration for SNP solution; wherein x is one of the following concentrations);
were then added to the assay mixture (2 μL each) and the resulting mixture incubated at 37° C. for 10 minutes. After the 10 minute incubation, the assay mixture was aspirated and 0.1M HCl (200 μL) was added to the cells. The plate was incubated at 4° C. for 30 minutes in the 0.1M HCl to stop the reaction and lyse the cells. The plates were then centrifuged at 1,200 g for 5 minutes at room temperature.
cGMP levels were determined using a cGMP HTRF assay (Cisbio Product #62GM2PEC). For each sample, 5 uL of HEK assay supernatant was diluted 1:5 in HTRF kit assay diluent and transferred to a well of the assay plate, and the HTRF assay was performed according to the HTRF kit manufacturer's instructions. Sample calculations were performed using high and low controls, where high control was supernatant from HEK assay performed in the presence of 10 uM Bay 41-2272+100 uM SNP, and the low control was the supernatant from the HEK assay performed in the presence of vehicle. A cGMP standard solution was prepared in 0.1 M HCl and diluted in order to perform a cGMP standard curve using the HTRF assay. Using Mean Ratio data from the HTRF assay, sample date were normalized according to the equation: 100*(Sample−Low Control)/(High Control−Low Control). Data were fit to a 3-parameter log agonist dose response (Top (% EMax), Bottom, log EC50) using Graphpad (Prism Software). Data in Table 3C was obtained using this modified assay procedure.

[2] = target: T1, soluble guanylate cyclase (sGC); test: sGC-HEK-cGMP assay with SNP incubation (LC/MS read-out); format: cell-based; details: 10 μM SNP, 100% = BAY 41-2272 at 10 μM with 100 μM SNP
Procedure: (Assay Run with SNP Incubation)
as §1, with “receptor” for “enzyme”
were then added to the assay mixture (2 μL each) and the resulting mixture incubated at 37° C. for 10 minutes. After the 10 minute incubation, the assay mixture was aspirated and 0.1M HCl (200 μL) was added to the cells. The plate was incubated at 4° C. for 30 minutes in the 0.1M HCl to stop the reaction and lyse the cells. The plates were then centrifuged at 1,200 g for 5 minutes at room temperature. Supernatants were collected and transferred to a new flat bottom 96 well plate for analysis by HPLC-MS. Vehicle controls were carried out using DMSO (1%) solutions. A known sGC stimulator, BAY 41-2272, was used as the positive control. Samples were diluted with an equal volume of 1 M Ammonium Acetate (pH 7) to neutralize samples for better chromatography. A 2×cGMP standard solution was prepared in 0.1 M HCl and then diluted with an equal volume of 1 M Ammonium Acetate, with the following final concentrations in nM: 1024, 512, 256, 128, 64, 32, 16, 8, 4, 2, 1. cGMP concentrations in the test plates were determined from each sample using the LC/MS conditions shown in Table 2 below and the calculated cGMP standard curve. EC50 values were calculated from concentration-response curves generated with GraphPad Prism Software.
The biological activities of some of the compounds of Formula I or Formula Ib determined with the sGC-HEK assay with SNP incubation are summarized in Tables 3A and 3B.

[3] = target: T2, Human soluble guanylate cyclase enzyme (hsGC) (Homo sapiens, UniProt Q02108+Q02153); test: Purified human sGC enzyme activity assay (without SNP); format: biochemical; details: 30 μM compound, fold change of specific activity vs DMSO control
T2 construct: purchased Enzo Inc. ALX-201-177
T2 sequence (Q02153 1-619): T1 sequence (Q02153 1-619)
T2 sequence (Q02108 1-690): T1 sequence (Q02108 1-690)
Procedure: (§2) Human soluble guanylate cyclase enzyme (hsGC) obtained from Enzo Inc. (P/N: ALX-201-177) was used to evaluate the activity of test compounds. The assay reactions contained 0.1 M Tris (pH 8.0), 0.5 mg/mL BSA (pH 8.0), 2 mM DTT, 2 mM MgCl2, 300 μM GTP, 1 mM 3-isobutyl-1-methylxanthine (IBMX) and 5 ng human soluble guanylate cyclase enzyme. Test compounds in DMSO were then added (2 μL, 10 or 30 μM final concentration) and incubated (water, 200 μL, 96-well plate format) at 37° C. for 30 minutes. The controls were carried out using 2 μL DMSO. After the 30 minute incubation, the reaction was stopped with the addition of 200 μL of cold methanol. The plate was then centrifuged at 3,200 rpm for 10 minutes at room temperature. Supernatants (200 μL) were collected and transferred to a new 96 well plate for analysis by HPLC LC/MS/MS.
(§3) An 8 point cGMP (Sigma-Aldrich P/N: G6129) standard curve was prepared in assay buffer ranging from 0.156-20 μM. Samples for the cGMP standard curve were then diluted with an equal volume of methanol resulting in final cGMP concentrations of 0.078-10 μM.
(§4) The cGMP standard curve was generated using GraphPad Prism Software.
Calculations: Specific Activity was determined by the amount of cGMP formed (nmoles) per mg of sGC per min. Enzyme “fold-change” was calculated by dividing Specific Activity for test compounds by Specific Activity of DMSO controls.

[4] = target: T2, Human soluble guanylate cyclase enzyme (hsGC); test: Purified human sGC enzyme synergy assay in the presence of sodium nitroprusside (SNP); format: biochemical; details: 30 μM compound, 1 μM SNP; fold change of specific activity vs DMSO control
Procedure: as §2, §3, §4
Calculations: Specific Activity was determined by the amount of cGMP formed (nmoles) per mg of sGC per min. Enzyme “fold-change” was calculated by dividing Specific Activity for test compounds by Specific Activity of DMSO controls. […]

[5] = system: Guinea pig tracheal smooth muscle; test: Electrical field stimulated guinea pig tracheal smooth muscle contraction (ex vivo); details: sub-maximal EFS; pooled data of three experiments; 95% CI 0.78-0.94; read-out: IC50, inhibition of EFS-induced tracheal smooth muscle contraction
Description: It is possible to assess the bronchodilating effects of sGC stimulators by using the system described below. This system allowed us to determine potency, efficacy and duration of action of several sGC stimulators, as well as to assess potential side effects such as blood pressure, or heart rate changes.
Animals: Guinea pig, Dunkin Hartley, male, Full barrier-bred and certified free of specific micro-organisms on receipt 525-609 g on the experimental day, Harlan UK Ltd. Guinea pigs were housed in a group of 4 in solid-bottomed cages with Gold Flake bedding in a controlled environment (airflow, temperature and humidity). Food (FD1, Special Diet Services) and water were provided ad libitum.
On each experimental day, a guinea pig was killed by exposure to a rising concentration of CO2 and the trachea removed. […] Tissues were washed with Kreb's buffer and stimulated using the previously determined sub-maximal voltage for 1 hour to establish a stable baseline contraction prior to assessment of compound activity.
A cumulative dose response curve (DRC) to each test substance was then performed and changes in smooth muscle contraction measured. The effect of each test substance in each experiment was expressed as a percentage inhibition of the baseline contraction, normalized to the relevant vehicle controls. […]

## OCC(CO)Nc1nc(-n2cc(-c3ccon3)c(Cc3ccccc3F)n2)ncc1F [Compound I-5]
[1]
  Emax: 80 to 100%
  EC50: 100 to 500 nM

## Fc1ccccc1Cc1nn(-c2ncc(F)c(N3CCOCC3)n2)cc1-c1ccon1 [Compound I-6]
[1]
  Emax: 80 to 100%
  EC50: 100 to 500 nM

## OCC(O)Cn1ccc2cnc(-n3cc(-c4ccon4)c(Cc4ccccc4F)n3)nc21 (centres unmarked) [Compound I-7]
[1]
  Emax: 80 to 100%
  EC50: 100 to 500 nM

## Nc1nc(-n2cc(-c3ncco3)c(Cc3ccccc3F)n2)ncc1F [Compound I-8]
[2]; 10 μM compound, read-out: HEK assay (Percent Emax at 10 μM)
  Emax at 10 µM: 60 to 80%
[2]; 30 μM compound, read-out: HEK assay (Percent Emax at 30 μM)
  Emax at 30 µM: 60 to 80%
[3]
  Enzyme Activity (increase at 30 μM without SNP): C (C = 5 to <10 fold increase)
[4]
  Enzyme Activity (increase at 30 μM with SNP): E (E = 20 to 30 fold increase)

## CC(C)[N+]1(C)[C@@H]2CC[C@H]1CC(OC(=O)C(CO)c1ccccc1)C2 (some centres unmarked) [Ipratropium bromide]
[5]
  IC50: 0.86 nM
